Measured values: PubChem BioAssay (NCI)
Where “and” joins values, the source holds several entries; their conditions need not be identical. Equal values may be shown once.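 Results reflect a 48-hour exposure of cells in 96-well plates to compound at five concentrations. GI50 is the concentration that inhibits growth by half. The concentration for full growth arrest is given as TGI.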

Experiments:
Assay in all cases: inhibition of tumour cell growth, NCI panel, 48 h
ACHN renal = system: ACHN renal
DU-145 prostate = system: DU-145 prostate
HCC-2998 colon = system: HCC-2998 colon
NCI-H226 lung = system: NCI-H226 lung
NCI-H23 lung = system: NCI-H23 lung
SNB-75 CNS = system: SNB-75 CNS
SW-620 colon = system: SW-620 colon
T-47D breast = system: T-47D breast

In the case of COc1ccc(-c2ccc3c(N4CCOC[C@@H]4C)nc(N4CCOC[C@@H]4C)nc3n2)cc1CO, the GI50 (ACHN renal) is reported as 0.00495 µM and 0.0209 µM, the TGI (ACHN renal) is reported as greater than 100 µM and the GI50 (DU-145 prostate) is reported as 0.00584 µM and 0.0416 µM. The TGI (DU-145 prostate) was greater than 100 µM, the GI50 (HCC-2998 colon) was 0.0094 µM and 0.0254 µM and the TGI (HCC-2998 colon) was 3.21 µM. The GI50 (NCI-H226 lung) was 0.004 µM and 0.0139 µM, the TGI (NCI-H226 lung) was 0.186 µM and 0.312 µM and the GI50 (NCI-H23 lung) was 0.00731 µM and 0.0394 µM. The TGI (NCI-H23 lung) was greater than 100 µM, the GI50 (SNB-75 CNS) was 0.0039 µM and < 0.01 µM and the TGI (SNB-75 CNS) was 0.0237 µM and 0.0359 µM. For the same compound, the GI50 (SW-620 colon) was 0.0078 µM and 0.0537 µM, the TGI (SW-620 colon) was greater than 100 µM and the GI50 (T-47D breast) was 0.00158 µM and < 0.01 µM. The TGI (T-47D breast) was 0.00844 µM and 0.0544 µM.

Compound C#CCOc1cccc(Nc2ncnc3c(NC(=O)C=C)cccc23)c1 has a GI50 (ACHN renal) of 17.8 µM, a TGI (ACHN renal) of 63.4 µM and a GI50 (DU-145 prostate) of 18.1 µM. For the same compound, the TGI (DU-145 prostate) was greater than 100 µM, the GI50 (HCC-2998 colon) was 17.7 µM and the TGI (HCC-2998 colon) was 33.9 µM. For the same compound, the GI50 (NCI-H226 lung) was 25.5 µM, the TGI (NCI-H226 lung) was 69.1 µM and the GI50 (NCI-H23 lung) was 24.8 µM. The TGI (NCI-H23 lung) was greater than 100 µM, the GI50 (SNB-75 CNS) was 17.6 µM and the TGI (SNB-75 CNS) was greater than 100 µM. The GI50 (SW-620 colon) was 25.8 µM, the TGI (SW-620 colon) was greater than 100 µM and the GI50 (T-47D breast) was 18.2 µM. The TGI (T-47D breast) was 78.4 µM.

For NCCNCC1CCNCC1, the TGI (ACHN renal) was greater than 100 µM, the TGI (DU-145 prostate) was greater than 100 µM and the TGI (HCC-2998 colon) was greater than 100 µM. It also gave a TGI (NCI-H226 lung) greater than 100 µM, a TGI (NCI-H23 lung) greater than 100 µM and a TGI (SNB-75 CNS) greater than 100 µM. For the same compound, the TGI (SW-620 colon) was greater than 100 µM and the TGI (T-47D breast) was greater than 100 µM.

COc1cc2c(Nc3cc(Cl)c(OC)c(Cl)c3)c(C#N)cnc2cc1OCCCN1CCN(C)CC1 gave a GI50 (ACHN renal) of 0.239 µM, a TGI (ACHN renal) of 3.58 µM and a GI50 (DU-145 prostate) of 1.28 µM. The TGI (DU-145 prostate) was 13 µM, the GI50 (HCC-2998 colon) was 1.56 µM and the TGI (HCC-2998 colon) was 4.1 µM. It also gave a GI50 (NCI-H226 lung) of 3.39 µM, a TGI (NCI-H226 lung) of 18.2 µM and a GI50 (NCI-H23 lung) of 1.54 µM. The TGI (NCI-H23 lung) was 4.89 µM, the GI50 (SNB-75 CNS) was 6.57 µM and the TGI (SNB-75 CNS) was 25.2 µM. For the same compound, the GI50 (SW-620 colon) was 2.18 µM, the TGI (SW-620 colon) was 6.03 µM and the GI50 (T-47D breast) was 2.02 µM. For the same compound, the TGI (T-47D breast) was 9.65 µM.

For Nc1ccccc1O.O.O=C(O)C1[O][Sb][O]C1C(=O)O (stereo unspecified), the GI50 (ACHN renal) was 16.1 µM, the TGI (ACHN renal) was 29.8 µM and the GI50 (DU-145 prostate) was 14.6 µM. The TGI (DU-145 prostate) was 27.8 µM, the GI50 (HCC-2998 colon) was 17.9 µM and the TGI (HCC-2998 colon) was 47.7 µM. It also gave a GI50 (NCI-H226 lung) greater than 100 µM, a TGI (NCI-H226 lung) greater than 100 µM and a GI50 (NCI-H23 lung) of 17.6 µM. It also gave a TGI (NCI-H23 lung) of 44.2 µM, a GI50 (SNB-75 CNS) of 24.9 µM and a TGI (SNB-75 CNS) of 40.5 µM. For the same compound, the GI50 (SW-620 colon) was 4.48 µM, the TGI (SW-620 colon) was 31.2 µM and the GI50 (T-47D breast) was 12.2 µM. It also gave a TGI (T-47D breast) of 34 µM.

Work on C=CC(=O)N1CN(C(=O)C=C)CN(C(=O)C=C)C1 yielded a GI50 (ACHN renal) of 1.89 µM, a TGI (ACHN renal) of 4.49 µM and a GI50 (DU-145 prostate) of 10.7 µM. For the same compound, the TGI (DU-145 prostate) was 29 µM, the GI50 (HCC-2998 colon) was 10.2 µM and the TGI (HCC-2998 colon) was 25.3 µM. The GI50 (NCI-H226 lung) was 5.87 µM, the TGI (NCI-H226 lung) was greater than 100 µM and the GI50 (NCI-H23 lung) was 2.77 µM. It also gave a TGI (NCI-H23 lung) of 9.15 µM, a GI50 (SNB-75 CNS) of 8.9 µM and a TGI (SNB-75 CNS) greater than 100 µM. It also gave a GI50 (SW-620 colon) of 2.16 µM, a TGI (SW-620 colon) of 5.16 µM and a GI50 (T-47D breast) of 2.32 µM. The TGI (T-47D breast) was 12.8 µM.

COC(c1ccc(C(C)(C)C)cc1)(c1ccc(C(C)(C)C)cc1)c1ccc(C(C)(C)C)cc1 showed a TGI (ACHN renal) greater than 100 µM, a TGI (DU-145 prostate) greater than 100 µM and a TGI (HCC-2998 colon) greater than 100 µM. The TGI (NCI-H226 lung) was greater than 100 µM, the TGI (NCI-H23 lung) was greater than 100 µM and the TGI (SNB-75 CNS) was greater than 100 µM. It also gave a TGI (SW-620 colon) greater than 100 µM and a TGI (T-47D breast) greater than 100 µM.
